Laboratory results as given in ChEMBL document CHEMBL5316276, “Discovery of the First Lactate Dehydrogenase Proteolysis Targeting Chimera Degrader for the Treatment of Pancreatic Cancer” (J Med Chem, 2023).
Values belong to the molecule of their own block, whether it stands above or below them. The source made the active and inactive calls. The rule behind the calls is not given here.

Experiments:
[1] = target: T1, von Hippel-Lindau disease tumor suppressor/L-lactate dehydrogenase A chain (Homo sapiens) (UniProt P00338+P40337); assay: Protac activity at VHL E3 ligase/LDHA in human PANC-1 cells assessed as induction of LDHA degradation at 10 uM incubated for 48 hrs by Western blotting analysis; assay type: cell-based
[2] = target: T2, L-lactate dehydrogenase A chain (Homo sapiens, UniProt P00338); assay: Inhibition of recombinant human LDHA
[3] = target: T3, L-lactate dehydrogenase B chain (Homo sapiens, UniProt P07195); assay: Inhibition of recombinant human LDHB
T3 sequence (P07195 whole entry): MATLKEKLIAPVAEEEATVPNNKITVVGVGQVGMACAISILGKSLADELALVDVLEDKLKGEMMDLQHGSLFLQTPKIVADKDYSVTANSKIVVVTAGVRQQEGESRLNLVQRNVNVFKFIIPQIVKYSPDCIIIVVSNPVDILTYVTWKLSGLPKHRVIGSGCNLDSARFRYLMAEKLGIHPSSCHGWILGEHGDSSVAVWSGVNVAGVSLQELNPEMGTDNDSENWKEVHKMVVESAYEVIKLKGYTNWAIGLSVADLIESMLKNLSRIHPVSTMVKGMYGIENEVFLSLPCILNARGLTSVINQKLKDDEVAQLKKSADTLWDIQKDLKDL

[4] = target: T2, L-lactate dehydrogenase A chain; assay: Inhibition of human LDHA
[5] = target: T3, L-lactate dehydrogenase B chain; assay: Inhibition of human LDHB
[6] = target: T1, von Hippel-Lindau disease tumor suppressor/L-lactate dehydrogenase A chain (Homo sapiens); assay: Protac activity at VHL/LDHA in human BXPC-3 cells assessed as induction of LDHA degradation at 0.3 to 3 uM incubated for 24 hrs by Western blotting analysis; assay type: cell-based; conditions: dose 0.3-3 µM
[7] = target: T1, von Hippel-Lindau disease tumor suppressor/L-lactate dehydrogenase A chain (Homo sapiens); assay: Protac activity at VHL E3 ligase/LDHA in human MIA PaCa-2 cells assessed as induction of LDHA degradation at 0.3 to 3 uM incubated for 24 hrs by Western blotting analysis; assay type: cell-based; conditions: dose 0.3-3 µM
BXPC-3 = assay: Antiproliferative activity against human BXPC-3 cells assessed as cell growth inhibition incubated for 72 hrs by WST-8 assay; assay type: functional, cell-based
PANC-1 = assay: Antiproliferative activity against human PANC-1 cells assessed as cell growth inhibition incubated for 72 hrs by WST-8 assay; assay type: functional
MIA PaCa-2 = assay: Antiproliferative activity against human MIA PaCa-2 cells assessed as cell growth inhibition incubated for 72 hrs by WST-8 assay; assay type: functional

Structure (SMILES): Cc1ncsc1-c1ccc(CNC(=O)[C@@H]2C[C@@H](O)CN2C(=O)[C@@H](NC(=O)CCCCC(=O)NCCCCC#Cc2cccc(-c3nn(-c4nc(C(=O)O)cs4)c(CC4CC4)c3Cc3ccc(S(N)(=O)=O)cc3)c2)C(C)(C)C)cc1
Activity [1]: Active

Structure (SMILES): Cc1ncsc1-c1ccc(CNC(=O)[C@@H]2C[C@@H](OCc3ccccc3)CN2C(=O)[C@@H](NC(=O)CCCCCCCCCCCC(=O)NCCCCC#Cc2cccc(-c3nn(-c4nc(C(=O)O)cs4)c(CC4CC4)c3Cc3ccc(S(N)(=O)=O)cc3)c2)C(C)(C)C)cc1
IC50 [2]: 2.6 nM
IC50 [3]: 43 nM

Structure (SMILES): Cc1ccc(C#Cc2cccc(-c3nn(-c4nc(C(=O)O)cs4)c(CC4CC4)c3Cc3ccc(S(N)(=O)=O)c(F)c3)c2)s1
IC50 [4]: 3 nM
IC50 [5]: 5 nM

Structure (SMILES): NS(=O)(=O)c1ccc(Cc2c(-c3cccc(-c4ccccc4)c3)nn(-c3nc(C(=O)O)cs3)c2CC2CC2)cc1
Activity [6]: inactive
Activity [7]: inactive
inhibition (BXPC-3): inactive
GI50 (PANC-1): > 30000 nM
GI50 (MIA PaCa-2): > 30000 nM

Second part, the molecule after the results:

Activity [1]: Active
Structure (SMILES): Cc1ncsc1-c1ccc(CNC(=O)[C@@H]2C[C@@H](O)CN2C(=O)[C@@H](NC(=O)CCCCCCC(=O)NCCCCC#Cc2cccc(-c3nn(-c4nc(C(=O)O)cs4)c(CC4CC4)c3Cc3ccc(S(N)(=O)=O)cc3)c2)C(C)(C)C)cc1

Activity [1]: Active
Structure (SMILES): Cc1ncsc1-c1ccc(CNC(=O)[C@@H]2C[C@@H](O)CN2C(=O)[C@@H](NC(=O)CCCCCC(=O)NCCCCC#Cc2cccc(-c3nn(-c4nc(C(=O)O)cs4)c(CC4CC4)c3Cc3ccc(S(N)(=O)=O)cc3)c2)C(C)(C)C)cc1
